Values quoted from earlier work as cited in US20250195486A1 (Closed Loop Medicine Ltd., priority 2023, published 2025).
“Also recorded” adds a separate entry of the source. Like-named read-outs stand apart in the source and are kept apart here. Blank lines part the entries; values can stand above or below the molecule they belong to.

Tests used:
[1] = molecular target: P-gp (Homo sapiens, UniProt P08183)
[2] = population mean; Song et al. (2014), Phases I and II
[3] = Niebecker et al. (2015)
[4] = Yin et al. (2014)
[5] = system: patients with NVAF; details: patient with normal renal function
[6] = system: patients with NVAF; details: 12 weeks
[7] = Salazar et al. (2012)
[8] = not given; remark: listed apart in the source
[9] = system: patients with AF; details: atrial fibrillation
[10] = population mean, Phases I and III
[11] = population mean, Phases I, II and III
[12] = population mean, Phases I and II
[13] = normally distributed, mean 0, Krekels et al. (2016) model
[14] = population mean, Krekels et al. (2016), Phases I and III

Chain of P-gp (P08183 whole entry): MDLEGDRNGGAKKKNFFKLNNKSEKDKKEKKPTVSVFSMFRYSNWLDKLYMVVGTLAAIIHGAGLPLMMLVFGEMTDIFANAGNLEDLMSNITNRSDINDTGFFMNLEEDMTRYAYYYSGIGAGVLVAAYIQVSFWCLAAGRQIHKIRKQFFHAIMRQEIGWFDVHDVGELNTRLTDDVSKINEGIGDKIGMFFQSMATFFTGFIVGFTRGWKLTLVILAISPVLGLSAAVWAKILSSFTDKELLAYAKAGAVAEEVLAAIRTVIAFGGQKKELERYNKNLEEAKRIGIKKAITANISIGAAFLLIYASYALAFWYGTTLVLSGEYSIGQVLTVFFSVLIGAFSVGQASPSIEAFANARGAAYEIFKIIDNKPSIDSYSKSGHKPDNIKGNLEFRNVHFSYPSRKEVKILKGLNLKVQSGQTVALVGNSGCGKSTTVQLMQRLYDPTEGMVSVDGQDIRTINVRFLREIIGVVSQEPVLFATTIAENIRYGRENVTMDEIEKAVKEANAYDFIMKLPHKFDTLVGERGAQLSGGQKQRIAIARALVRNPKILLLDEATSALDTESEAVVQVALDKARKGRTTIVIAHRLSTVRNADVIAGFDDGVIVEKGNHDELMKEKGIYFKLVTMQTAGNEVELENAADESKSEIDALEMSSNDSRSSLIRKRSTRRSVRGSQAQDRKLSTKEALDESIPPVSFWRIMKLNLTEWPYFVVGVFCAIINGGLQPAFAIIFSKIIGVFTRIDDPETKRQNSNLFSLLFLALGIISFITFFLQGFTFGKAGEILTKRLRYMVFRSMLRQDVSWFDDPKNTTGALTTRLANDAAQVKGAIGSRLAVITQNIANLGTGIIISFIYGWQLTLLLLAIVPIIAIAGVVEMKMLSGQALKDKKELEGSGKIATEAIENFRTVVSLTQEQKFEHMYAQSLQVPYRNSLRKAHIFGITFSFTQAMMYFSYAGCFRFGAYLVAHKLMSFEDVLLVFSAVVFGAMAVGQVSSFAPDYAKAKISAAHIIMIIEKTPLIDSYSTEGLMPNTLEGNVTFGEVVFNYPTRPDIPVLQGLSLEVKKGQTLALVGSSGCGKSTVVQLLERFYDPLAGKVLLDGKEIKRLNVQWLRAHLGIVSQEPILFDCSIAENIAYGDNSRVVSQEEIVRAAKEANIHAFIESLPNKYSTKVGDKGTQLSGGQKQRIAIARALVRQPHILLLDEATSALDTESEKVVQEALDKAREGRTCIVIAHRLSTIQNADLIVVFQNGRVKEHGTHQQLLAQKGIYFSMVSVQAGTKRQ

P-gp substrate status [1]: substrate of P-gp | CL/F [2]: 32.1 L/h | Ka [2]: 3.54 h⁻¹ | Lag time [2]: 0.39 h | Q/F [2]: 8.85 L/h | Vc/F [2]: 214 L | Vp/F [2]: 134 L | Significant covariates: CRCL (PK parameters influenced) [3]: CL/F | Significant covariates: P-gp inhibition (PK parameters influenced) [3]: CL/F, F | Significant covariates: Race (PK parameters influenced) [3]: Vc/F | CL/F (CLNR/F) ([3]; non-renal clearance, population mean, Phases I and III): 15.5 L/h | Ka [3, 10]: 3.35 h⁻¹ | Lag time [3, 10]: 0.25 h | Q/F [3, 10]: 5.92 L/h | Vc/F [3, 10]: 209 L | Vp/F [3, 10]: 92.3 L | Significant covariates: Age (PK parameters influenced) [4]: CL/F, Ka | Significant covariates: CRCL (PK parameters influenced) [4]: CL/F | Significant covariates: P-gp inhibition (PK parameters influenced) [4]: Vc/F, Ka, F | CL/F [4, 11]: 11.4 L/h | F [4, 11]: 0.58 | Ka [4, 11]: 1.08 h⁻¹ | Lag time [4, 11]: 0.25 h | Q/F [4, 11]: 2.73 L/h | Vc/F [4, 11]: 151 L | Vp/F [4, 11]: 42.9 L | trough edoxaban level required to reduce the risk of a major bleeding event below 2% [5]: < 30 ng/mL | trough edoxaban level required to reduce the risk of a major bleeding event below […] [5]: < 40 ng/mL | risk of bleeding, 30 mg twice-daily vs 60 mg once-daily [6]: greater | Metabolism (extent) (by CES1, CYP3A4 and glucuronidation): < 30% | time of peak plasma concentrations (following oral administration): 1 to 2 h | time of peak levels (immediate-release doses, taken without food): 1 to 2 h | time of peak levels with food (immediate-release doses, with food vs without food): an hour later | Renal clearance as share of total body clearance (in vivo): ~50% | accumulation upon repeat dosing (in vivo): minimal accumulation | effect of food on rate of absorption (in vivo): decreases the rate of absorption | effect of food on total exposure (in vivo): does not affect | increase of total systemic exposure (AUC∞) (moderate or severe renal impairment vs normal renal function): almost two-fold | bioavailability (oral): approximately 62% | terminal half-life (oral administration): 10 to 14 h | dose linearity of pharmacokinetics (over the therapeutic range of doses): linear | unchanged drug found in the faeces (partly due to biliary elimination): 30-50% | Significant covariates: CRCL (PK parameters influenced) [7]: CL/F | Significant covariates: Food (PK parameters influenced) [7]: Ka | Significant covariates: P-gp inhibition (PK parameters influenced) [7]: CL/F, Ka, F | Significant covariates: Patient status (PK parameters influenced) [7]: Vc/F | CL/F [7, 12]: 36 L/h | F [7, 12]: 1 | Ka [7, 12]: 5.87 h⁻¹ | Lag time [7, 12]: 0.42 h | Q/F [7, 12]: 6.42 L/h | Vc/F [7, 12]: 244 L | Vp/F [7, 12]: 90.3 L | Significant covariates: CRCL (PK parameters influenced) ([8]; Krekels et al. (2016)): CL/F | CL/F (CLNR/F) ([8]; non-renal clearance, population mean, Krekels et al. (2016), Phases I and III): 13.8 L/h | variance of ηCL/F (between-subject variability) [8, 13]: 0.0185 | variance of ηQ/F (between-subject variability) [8, 13]: 0.2285 | variance of ηVc/F (between-subject variability) [8, 13]: 0.04623 | variance of ηVp/F (between-subject variability) [8, 13]: 0.2285 | Ka [8, 14]: 2.16 h⁻¹ | Lag time [8, 14]: 0.25 h | Q/F [8, 14]: 5.75 L/h | Vc/F [8, 14]: 194 L | Vp/F [8, 14]: 88.6 L
Compound: CN1CCc2nc(C(=O)N[C@@H]3C[C@@H](C(=O)N(C)C)CC[C@@H]3NC(=O)C(=O)Nc3ccc(Cl)cn3)sc2C1 [edoxaban]
Significant covariates: Body weight (PK parameters influenced) [3]: CLNR/F, Q/F,; also recorded: Vc/F, Vp/F | Significant covariates: Body weight (PK parameters influenced) [4]: CL/F, Vc/F | Significant covariates: Body weight (PK parameters influenced) [7]: Vc/F

Compound: CC(=O)CC(c1ccccc1)c1c(O)c2ccccc2oc1=O (centres unmarked) [warfarin]
reduction of stroke [9]: about 60%
